Our source for the Kd values is ChEMBL document CHEMBL5729293, “Inhibitors of KEAP1-Nrf2 protein-protein interaction” (2022).

The experiment can be described thus: Fluorescence Based Assay: The details of the KEAP1 KELCH ThermoFluor® Assay Construct are as follows: Kelch domain of human KEAP 1 (321-624 aa) was used in the assay. The protein was expressed in E. coli with 6His tag that was cleaved prior to receipt for use.ThermoFluor® experiments were carried out using instruments owned by Janssen Research and Discovery, L.L.C. through its acquisition of 3-Dimensional Pharmaceuticals, Inc. 1,8-ANS (Invitrogen) was used as a fluorescent dye. Protein (KEAP Kelch) and compound solutions were dispensed into black 384-well polypropylene PCR microplates (Abgene) and overlayed with silicone oil (1 μL, Fluka, type DC 200) to prevent evaporation.Reference wells contained KEAP Kelch without compounds, and the assay conditions were as follows: 1.1 μM (0.037mg/mL) KEAP Kelch, 80 μM 1,8-ANS, 25 mM PIPES, pH 7.0, 100 mM NaCl, 0.002% Tween-20.
For `Cc1cnc2c(c1)S(=O)(=O)N(Cc1cc([C@@H](c3ccn4c(C(F)F)nnc4c3C)C(C)(C)C(=O)O)ccc1C)CC1(CCOCC1)O2`, the Kd (as a rule, the constant that tells how readily two partners part at equilibrium) is less than 1 nM.

Molecule `Cc1ccc([C@@H](CC(=O)O)c2ccn3c(C(F)F)nnc3c2C)cc1CN1CC2(CCOCC2)Oc2ccc(F)cc2S1(=O)=O` came in with a Kd of less than 1 nM.

For the molecule `COc1ccc2c(n1)OC1(CCOCC1)CN(Cc1cc([C@@H](c3ccn4c(C(F)F)nnc4c3C)C(C)(C)C(=O)O)ccc1C)S2(=O)=O`, the Kd was less than 1 nM.

Take `Cc1ccc([C@H](CC(=O)O)c2ccn3c(C(F)(F)F)nnc3c2C)nc1CN1CC2(COC2)Oc2ncccc2S1(=O)=O`: the dissociation constant Kd is less than 1 nM.

`Cc1ccc([C@@H](CC(=O)O)c2ccc3c(nnn3CC3CC3)c2C)cc1CN1C[C@H]2CCCN2c2ncccc2S1(=O)=O` gave a Kd of less than 1 nM.

As for `Cc1ccc([C@@H](c2ccn3c(C4CC4)nnc3c2C)C(C)(C)C(=O)O)cc1CN1CC2(CC2)Oc2nc(OCCN3CCCC3)c(C)cc2S1(=O)=O`, the Kd is less than 1 nM.

Turning to `Cc1ccc([C@@H](CC(=O)O)c2ccn3c(C(F)F)nnc3c2C)cc1CN1CC2(COC2)Oc2ncccc2S1(=O)=O`, the Kd is less than 1 nM.

In the case of `Cc1ccc(C(CC(=O)O)c2ccn3c(C(F)(F)F)nnc3c2C)cc1CN1CC2(COC2)Oc2ncccc2S1(=O)=O` (stereo unspecified), the Kd is less than 1 nM.

On to `Cc1ccc([C@@H](c2ccn3c(C(F)(F)F)nnc3c2C)C(C)(C)C(=O)O)cc1CN1CC2(CC2)Oc2nc(OCCN3CC(F)C3)c(C)cc2S1(=O)=O`, for which the Kd was less than 1 nM.

Regarding `Cc1ccc([C@@H](CC(=O)O)c2ccn3c(C(F)F)nnc3c2C)cc1CN1C[C@H]2CCCN2c2ncccc2S1(=O)=O`, the dissociation constant Kd was less than 1 nM.

As for `Cc1ccc(C(c2ccn3c(C(F)(F)F)nnc3c2C)C(C)(C)C(=O)O)cc1CN1CC2(CCOCC2)Oc2nc(N[C@@H](C)CCO)ccc2S1(=O)=O` (stereo partly specified), the Kd is less than 1 nM.
